This passage reports GI50 and TGI results from PubChem BioAssay (NCI).

Some test systems named below: MCF7 breast; NCI/ADR-RES ovarian; DMS 114 small cell lung; SNB-78 CNS; DLD-1 colon; PC-3 prostate; T-47D breast; MDA-N; RXF-631 renal; P388 leukemia; P388/ADR leukemia; SN12K1 renal.
What all share (experiment): NCI tumour cell line growth inhibition, 48 h

Molecules are shown by their SMILES. “And” between values parts separate entries of the source, which are not always exact repeats. Equal entries are not always repeated.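 Dose response: 5 concentrations. Exposure: 48 h. Format: 96-well plates. Endpoint: linear interpolation; highest concentration if not reached. GI50 = concentration required for 50% inhibition of growth. TGI denotes the concentration required for complete inhibition of growth.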

`O=C(NC(Cc1ccccc1)C(=O)CCl)OCc1ccccc1` (configuration not stated): the GI50 in the assay with MCF7 breast was 2.96 µM; with NCI/ADR-RES ovarian, 6 µM; with PC-3 prostate, 6.13 µM; in the assay on T-47D breast it was 3.37 µM. The TGI with MCF7 breast amounted to 13.5 µM; in the assay on NCI/ADR-RES ovarian it was 53.7 µM; in the assay with DMS 114 small cell lung it was 4.66 µM; with SNB-78 CNS it was 50 µM; in the assay on DLD-1 colon, 21.5 µM; in the assay on PC-3 prostate, 20.3 µM. In the assay with T-47D breast, this compound came in with a TGI of 16.7 µM.
As for `[Au+].c1c[n-]cn1.c1ccc([PH+](c2ccccc2)c2ccccc2)cc1`, the GI50 in the assay with NCI/ADR-RES ovarian is 32.9 µM; in the assay on DMS 114 small cell lung, 0.668 µM; in the assay on SNB-78 CNS, 7.57 µM; in the assay with PC-3 prostate it was 4.28 µM; with MDA-N it was 3.17 µM; in the assay with T-47D breast, 2.02 µM. In addition, the TGI was greater than 100 µM in the assay with NCI/ADR-RES ovarian; 1.91 µM with DMS 114 small cell lung; greater than 45.2 µM with SNB-78 CNS; 17.3 µM with PC-3 prostate; 12.9 µM in the assay on MDA-N; 4.74 µM in the assay with T-47D breast.
In the case of `O=c1sc(-c2nc3ccccc3[nH]2)c(/N=C/c2ccccc2)n1-c1ccccc1`, the TGI in the assay with SNB-78 CNS and with DLD-1 colon was greater than 100 µM in each case.
Regarding `C=C1CCC2(C(C)=O)COC1(C)O2` (configuration not stated), the TGI in the assay with DMS 114 small cell lung and in the assay on DLD-1 colon was greater than 100 µM in each case.
As for `CCOC(=O)CP(=S)(S)c1ccccc1` (configuration not stated), the TGI in the assay with DMS 114 small cell lung, in the assay with SNB-78 CNS and in the assay with DLD-1 colon was greater than 100 µM each time.
Consider `COc1cc([C@@H]2c3cc4c(cc3[C@@H](NC(=O)c3ccc(OC(C)=O)cc3)C3COC(=O)[C@@H]32)OCO4)cc(OC)c1O` (some centres not stated), for which the TGI is 17.3 µM in the assay on RXF-631 renal, 5.38 µM in the assay on DMS 114 small cell lung, greater than 100 µM in the assay on SNB-78 CNS and 26 µM with DLD-1 colon.
For `c1cnc2nc3n(c2c1)CSC3`, the TGI with DMS 114 small cell lung, with SNB-78 CNS and in the assay on DLD-1 colon was greater than 100 µM throughout.
`O=C1CCCCCCCCCCOC(=O)CCCCCCCCCCO1`: the TGI in the assay with DMS 114 small cell lung, with SNB-78 CNS and in the assay with DLD-1 colon was greater than 100 µM in each case.
Take `O=C1NC(Cc2ccccc2)C(=O)N2CCCC12` (configuration not stated): the TGI with DMS 114 small cell lung, with SNB-78 CNS and with DLD-1 colon was greater than 100 µM each time.
`CC(O)c1ccc(C(O)/C(=N\NC(=O)c2ccncc2)c2nc3ccc([N+](=O)[O-])cc3[nH]c2=O)cc1` (configuration not stated): the TGI in the assay with RXF-631 renal was greater than 100 µM; in the assay with DMS 114 small cell lung, 98.2 µM; with SNB-78 CNS it was greater than 100 µM; with DLD-1 colon it was greater than 100 µM.
With `O=[P+](O)c1cccnc1`, the TGI in the assay on RXF-631 renal, in the assay on DMS 114 small cell lung, in the assay with SNB-78 CNS and with DLD-1 colon was greater than 100 µM each time.
In the case of `COC(=O)C1=Cc2cn(S(=O)(=O)c3ccc(C)cc3)c3cccc(c23)C(C=C(C)C)N1C(C)=O` (configuration not stated), the TGI with DMS 114 small cell lung, in the assay with SNB-78 CNS and in the assay with DLD-1 colon was greater than 100 µM each time.
As for `O=C(O)c1ccccc1C1c2ccc(Cl)cc2Oc2cc(Cl)ccc21`, the TGI with RXF-631 renal, with DMS 114 small cell lung and in the assay with DLD-1 colon was greater than 100 µM each time.
As for `Cc1cc(C)c(C2=NO[C@@H]3C(=O)N(c4ccc(Cc5ccc(N6C(=O)[C@H]7C(c8c(C)cc(C)cc8C)=NO[C@H]7C6=O)cc5)cc4)C(=O)[C@H]23)c(C)c1`, the TGI in the assay on DMS 114 small cell lung, in the assay with SNB-78 CNS and in the assay on DLD-1 colon was greater than 100 µM throughout.
Consider `C1C[S][Ge]2([S]CCS1)[S]CCSCC[S]2`, for which the GI50 in the assay with DMS 114 small cell lung, in the assay with SNB-78 CNS and in the assay with DLD-1 colon was greater than 100 µM in each case. For the same compound, the TGI in the assay with DMS 114 small cell lung, in the assay with SNB-78 CNS and in the assay on DLD-1 colon was greater than 100 µM throughout.
With `Cc1nc(-n2nc(-c3ccccc3)cc2-c2ccccc2)sc1C(/C=C/c1ccc([N+](=O)[O-])cc1)=N/NC(N)=S`, the results for the TGI in the assay on DMS 114 small cell lung, in the assay on SNB-78 CNS and with DLD-1 colon were 73.5 µM, 56.7 µM and greater than 100 µM, respectively.
Regarding `Cc1ccc(S(=O)(=O)OC2CSSCC2OS(=O)(=O)c2ccc(C)cc2)cc1` (configuration not stated), the TGI was 26.5 µM in the assay with RXF-631 renal, 26.4 µM with DMS 114 small cell lung, 37 µM in the assay with SNB-78 CNS and 24.7 µM with DLD-1 colon.
Taken in the same sequence, the figures for `CCOC(=O)Cn1c(=O)[nH]c(=O)c2[nH]cnc21` were greater than 100 µM, greater than 100 µM, greater than 100 µM and greater than 100 µM.
Consider `C=CCn1c(=O)c(C(=O)NC(=O)OCC)cn(C2CCCCC2)c1=O`, for which the TGI in the assay with RXF-631 renal, in the assay with DMS 114 small cell lung, with SNB-78 CNS and in the assay on DLD-1 colon was greater than 100 µM throughout.
Regarding `COc1cc(=O)oc(/C=C/CO)c1C`, the TGI with RXF-631 renal, with DMS 114 small cell lung and in the assay on DLD-1 colon was greater than 100 µM in each case.
Turning to `COC1C(C)OC(OC2CC(C)(O)Cc3cc4c(c(O)c32)C(=O)c2c(O)cc3c(c2C4=O)OC2OC3(C)C(O)C(N(C)C)C2O)C(OC)C1(C)OC` (configuration not stated), the TGI in the assay with MCF7 breast was 0.413 µM; with NCI/ADR-RES ovarian, 21.2 µM; with RXF-631 renal, 7.14 µM; in the assay with DMS 114 small cell lung, 0.0635 µM and 0.0446 µM; with P388 leukemia it was 0.51 µM; in the assay on SNB-78 CNS, 1.78 µM and 2.57 µM. In addition, the TGI is 7.1 µM with P388/ADR leukemia; 5.12 µM and 3.91 µM in the assay with DLD-1 colon; 0.00375 µM in the assay on PC-3 prostate; 0.00187 µM in the assay on MDA-N; 0.06 µM in the assay with SN12K1 renal; 0.000313 µM with T-47D breast. Moreover, the GI50 in the assay with SNB-78 CNS is 0.00657 µM and 0.0327 µM; in the assay with DLD-1 colon it was 0.183 µM.
As for `Cc1cc(N(CCC#N)CCC#N)ccc1CC1N=C(c2ccccc2)OC1=O` (configuration not stated), the TGI in the assay with RXF-631 renal, in the assay on DMS 114 small cell lung and in the assay on DLD-1 colon was greater than 100 µM in each case.
For `CCCCC1N=CNc2c1ccc1c2[nH]c2ccccc21` (configuration not stated), the TGI in the assay on RXF-631 renal was 5.97 µM; in the assay on DMS 114 small cell lung, 4.06 µM; in the assay on SNB-78 CNS it was 38.6 µM; in the assay with DLD-1 colon, 6.3 µM; in the assay with PC-3 prostate, 3.23 µM; in the assay on MDA-N it was 3.28 µM. The TGI in the assay on T-47D breast came out at 3.2 µM.
As to `CN(CCCCN)c1ccc2c(=O)[nH][nH]c(=O)c2c1`, the TGI in the assay with DMS 114 small cell lung, in the assay on SNB-78 CNS and with DLD-1 colon was greater than 100 µM in each case.
Take `NNC(=S)NN/C=C(\C=Nc1ccccc1)[N+](=O)[O-]`: the TGI in the assay with RXF-631 renal, with DMS 114 small cell lung and with DLD-1 colon was greater than 100 µM in each case.
In the case of `C/C(CC(=O)Nc1cccc(C)c1C)=N\NC(N)=S`, the TGI in the assay with RXF-631 renal, in the assay with DMS 114 small cell lung, in the assay with SNB-78 CNS and in the assay on DLD-1 colon was greater than 100 µM throughout.
Take `COc1cc(CC2C(=O)OCC2[C@@H](OC(C)=O)c2ccc3c(c2)OCO3)c(Br)c(OC)c1OC` (some centres not stated): the TGI in the assay on DMS 114 small cell lung and with DLD-1 colon was greater than 100 µM throughout.
As to `COc1cc(CC(=O)c2cc3c(cc2-c2ccccc2)OCO3)cc(OC)c1OC`, the TGI in the assay with DMS 114 small cell lung, in the assay with SNB-78 CNS and in the assay with DLD-1 colon was greater than 100 µM throughout.
With `COc1ccc(NC(=O)C2=CC(=O)c3ccc(O)cc3C2=O)c(OC)c1`, the TGI in the assay with RXF-631 renal, with DMS 114 small cell lung, in the assay on SNB-78 CNS and in the assay with DLD-1 colon was greater than 100 µM in each case.
For `CN(CC1NCCCC1O)C12CC3CC(CC(C3)C1)C2` (configuration not stated), the TGI in the assay on DMS 114 small cell lung and in the assay with DLD-1 colon was greater than 100 µM each time.
Take `C=CNC(=S)n1nc(-c2ccccc2NC(=O)C(F)(F)F)c(=O)n(C(=S)NC=C)c1=S`: the TGI with DMS 114 small cell lung is 28.9 µM; in the assay with SNB-78 CNS it was greater than 100 µM; in the assay with DLD-1 colon it was 49.3 µM.
For the compound `O=C(O)CCCc1cc2c(s1)-c1cccc3cccc-2c13`, the TGI in the assay with SNB-78 CNS is 94.9 µM; in the assay on DLD-1 colon, greater than 100 µM.
On to `c1ccc(N2N=NC3C4CC(C5c6ccccc6C45)C32)cc1` (configuration not stated), for which the TGI with RXF-631 renal was greater than 100 µM; with DMS 114 small cell lung, 47.5 µM; with SNB-78 CNS, greater than 100 µM; with DLD-1 colon, greater than 100 µM.
Turning to `C[C@H]1CCC2C(CN3CCCCC3)C(=O)OC2[C@]2(C)C(=O)CC(N3CCCCC3)C12O` (some centres not stated), the TGI with RXF-631 renal was 3.71 µM; with DMS 114 small cell lung it was 13.1 µM; in the assay with SNB-78 CNS, greater than 100 µM; with DLD-1 colon it was 16 µM.
Taken in the same sequence, the figures for `N/C(=N/N=C/c1cccc(F)c1)NO` were greater than 100 µM, 84.7 µM, greater than 100 µM and greater than 100 µM.
As to `CSCC(COC(C)=O)(CSC)c1ccncc1`, the TGI with DMS 114 small cell lung and in the assay on SNB-78 CNS was greater than 100 µM throughout.
Turning to `O=C(CC(=O)N1N=C(c2ccccc2)C(N=Nc2ccccc2Cl)C1=O)Nc1ccccc1Cl` (configuration not stated), the TGI in the assay with RXF-631 renal, in the assay on DMS 114 small cell lung, with SNB-78 CNS and in the assay with DLD-1 colon was greater than 100 µM each time.
Take `C/C(CC(=O)Nc1ccc([N+](=O)[O-])cc1)=N\Nc1ccc([N+](=O)[O-])cc1[N+](=O)[O-]`: the TGI with RXF-631 renal, with DMS 114 small cell lung, with SNB-78 CNS and with DLD-1 colon was greater than 100 µM each time.
Take `COC(=O)Cc1nn2c(nc1=O)sc1ccc3ccccc3c12`: the TGI in the assay with RXF-631 renal and in the assay with DLD-1 colon was greater than 100 µM in each case.
On to `CC(C)OC(=O)c1cccnc1/C=N/O`, for which the TGI in the assay on DMS 114 small cell lung, with SNB-78 CNS and in the assay with DLD-1 colon was greater than 100 µM in each case.
As to `COc1ccc(/C=C/C(=O)c2ccccc2)cc1OC`, the GI50 in the assay with MCF7 breast is 3.3 µM; in the assay with NCI/ADR-RES ovarian, 8.33 µM; with PC-3 prostate, 23.2 µM; in the assay with T-47D breast, 18.4 µM. Moreover, the TGI in the assay on MCF7 breast is 11.8 µM and 13.4 µM; in the assay with NCI/ADR-RES ovarian, > 100 µM and 93.1 µM; in the assay on PC-3 prostate, 25.1 µM and 82 µM; with MDA-N, 15.3 µM; with T-47D breast, 48.7 µM and 60.8 µM.
For `NC(CSC1(c2ccc(Cl)cc2)c2ccccc2-c2ccccc21)C(=O)O` (configuration not stated), the TGI is 39 µM with MCF7 breast; greater than 100 µM in the assay with NCI/ADR-RES ovarian; 43.5 µM with PC-3 prostate; greater than 100 µM in the assay with MDA-N; greater than 100 µM in the assay on T-47D breast.
Turning to `Cn1c2c(c3ccccc31)CCN(CCCN1CCN(c3ccccc3)CC1)C2=O`, the TGI in the assay on DMS 114 small cell lung is 38.1 µM; in the assay with DLD-1 colon it was 46.6 µM.
